Like-named read-outs stand apart in the source and are kept apart here.
Key:
[1] = tested on: MRC-5; assay: MTT cytotoxicity assay on MRC-5 cells; format: cell-based; settings: Homo sapiens, MRC5, MRC-5 cell line, read-out: Growth inhibitory effects IC50
Method: (§1) In this in vitro study, we investigated the influence of PheNAHs on two model systems: human colorectal carcinoma HCT-116 and human healthy fibroblast cell line MRC-5. Both cell lines of low passages were purchased from the European collection of authenticated cell cultures (ECACC) and were cultivated in Dulbecco's Modified Eagle Medium (DMEM) (Sigma, D5796) cell culture medium supplemented with 10% foetal bovine serum (Sigma, F4135-500 ML) and 1% penicillin/streptomycin (Sigma, P4333-100 ML) in 75 cm^2 culture flasks. The cells were maintained according to the standardized procedure in the incubator with humidified atmosphere supplemented with 5% CO2 at a physiological temperature of 37°C, and after a few passages and a confluence of about 80%, the cells were used in all in vitro experiments (Laboratory for Bioengineering protocol CB-003).
(§2) The ability of synthesized compounds to inhibit the growth of two different cell lines was estimated by a standardized 3-(4,5-dimethylthiazol-2-yl)-2,5-diphenyltetrazolium bromide (MTT) assay (Laboratory for Bioengineering protocol CB-005). The approximative number of 10 000 cells per well (in 96-well microplates) were seeded and kept in the incubator for 24 h to enable cell adhesion. After the incubation period, the cells were treated with investigated compounds in the concentration range from 0,1 to 500 µM dissolved in DMEM. Cytotoxic effect was evaluated 24 and 72 h from treatment by following the number of survived cells, thus the cell viability. MTT assay is based on spectrophotometric measurement of reduction rate of 3-(4,5-dimethylthiazol-2-yl)-2,5-diphenyltetrazolium bromide (MTT, Acros Organics, 158990010) to purple formazan crystals subsequently dissolved in DMSO (Fisher Chemical, D/4121/PB15) on a microplate reader (Rayto 2100C) at 550 nm. The percentage of the survived (viable) cells was estimated by dividing the absorbance of the treatment with the absorbance of the control (non-treated) cells and multiplied by 100 [47]. As positive controls, Leucovorin and Irinotecan were selected as compounds used in colon cancer treatment.
(§3) Biological activity was the result of two individual experiments, performed in triplicate for each dose. Statistical analyses were determined using the one-way analysis of variance (ANOVA) test for multiple comparisons, SPSS (Chicago, IL) statistical software package (SPSS for Windows, v. 17, 2008). The IC50 values were calculated from the dose curves by a computer program (CalcuSyn). IC50 values represent the half-maximal inhibitory concentration of tested compounds to measure the influence in inhibition of cell growth for 50%. […] At the beginning of the process of selecting the anti-cancer drug candidate, it is necessary to make a rough preselection between the tested substances. In vitro analysis on cancer and healthy cell lines is quantified in different ways, selectivity also. The selectivity index (SI) of tested drugs usually refers to the simple ratio of IC50 values determined for cancer and healthy cells. Also, the SI can be used for the expression of many other examples, such as SI between antibacterial and antiviral effect, discrimination of the drugs effect between many cancer cell lines, etc. In our experimentation, the values greater than ‘1’ indicate selectivity of the tested substance toward cancer cell line.

[2] = tested on: HCT-116; assay: MTT cytotoxicity assay on HCT-116 cells; format: cell-based, human; settings: for IC50: Homo sapiens, HCT-116 cell line, read-out: Growth inhibitory effects IC50; for selectivity index (SI): ratio of IC50 values of MRC-5 and HCT-116, values greater than 1 indicate selectivity toward cancer cell line; for cytotoxic effect in words (from IC50 values): MTT
Method: as §1, §2, §3

[3] = DPPH radical scavenging assay; format: biochemical; settings: for IC50: DPPH 0.05 mM in methanol, incubated 20 and 60 min, absorbance at 517 nm, mean ± s.d. of three measurements, read-out: IC50 for inactivation of DPPH free radical; for stoichiometric factor (SF): SF=[DPPH]/(2×IC50), good antioxidant if SF ≥ 2
Method: The antioxidant screening of all PheNAHs was performed using the 2,2-diphenyl-1-picrylhydrazyl (DPPH) method. The solution of DPPH radical in methanol (0.05 mM, 1 ml) was mixed with the tested compound (20 µl of different concentrations in dimethyl sulfoxide (DMSO) and 980 µl of methanol). The reaction mixture was incubated in the dark at room temperature for 20 and 60 min after which the absorbance of the sample was measured spectrophotometrically at 517 nm. All measurements were performed in triplicate. Methanol was used as a control solution, whereas quercetin and nordihydroguaiaretic acid (NDGA) were used as reference compounds. […] IC50 is defined as the minimal concentration of tested compound required for reaching 50% of a maximum scavenging capacity. The results were presented as mean values ± standard deviation (s.d.) of three independent measurements. The stoichiometric factor (SF) was calculated for all compounds using the equation [45, 46]:1 SF=[DPPH]/(2×IC50)

SMILES | IC50 ([1]; 24 h exposure) | IC50 ([1]; 72 h exposure) | IC50 ([2]; 24 h exposure) | IC50 ([2]; 72 h exposure) | IC50 [3] | selectivity index (SI) ([2]; after 24 h exposure) | selectivity index (SI) ([2]; after 72 h exposure) | stoichiometric factor (SF) [3] | cytotoxic effect in words (from IC50 values) ([2]; 72 h after treatment) | cytotoxic effect in words (from IC50 values) ([2]; 24 and 72 h exposure, 0,1 to 500 µM)
O=C(N/N=C/c1ccccc1)c1ccccc1 [1a] | > 500 µM | > 500 µM | > 500 µM | > 500 µM | > 100 µM | – | – | – | – | –
O=C(N/N=C/c1ccccc1O)c1ccccc1 [1b] | > 500 µM | > 500 µM | 249 µM | 139 µM | > 100 µM | >2.01 | >3.59 | – | – | –
O=C(N/N=C/c1ccc(O)cc1)c1ccccc1 [1c] | > 500 µM | > 500 µM | > 500 µM | > 500 µM | > 100 µM | – | – | – | – | –
COc1cccc(/C=N/NC(=O)c2ccccc2)c1O [1d] | > 500 µM | 306 µM | > 500 µM | 66.6 µM | > 100 µM | – | 4.6 | – | – | –
COc1cc(/C=N/NC(=O)c2ccccc2)ccc1O [1e] | > 500 µM | > 500 µM | > 500 µM | > 500 µM | 31.4 ± 0.9 µM | – | – | 0.4 | – | –
COc1cc(/C=N/NC(=O)c2ccccc2)cc(OC)c1O [1f] | > 500 µM | > 500 µM | > 500 µM | > 500 µM | 17.2 ± 1.1 µM | – | – | 0.7 | – | –
O=C(N/N=C/c1ccc(O)cc1O)c1ccccc1 [1g] | > 500 µM | > 500 µM | > 500 µM | 316 µM | > 100 µM | – | – | – | – | –
O=C(N/N=C/c1ccc(O)c(O)c1)c1ccccc1 [1h] | > 500 µM | > 500 µM | > 500 µM | > 500 µM | 2.93 ± 0.1 µM | – | – | 4.3 | – | –
O=C(N/N=C/c1ccccc1)c1ccccc1O [2a] | > 500 µM | > 500 µM | > 500 µM | > 500 µM | > 100 µM | – | – | – | – | –
O=C(N/N=C/c1ccccc1O)c1ccccc1O [2b] | > 500 µM | 233 µM | 26.9 µM | 70.5 µM | > 100 µM | >18.59 | 3.30 | – | – | –
O=C(N/N=C/c1ccc(O)cc1)c1ccccc1O [2c] | > 500 µM | > 500 µM | > 500 µM | > 500 µM | > 100 µM | – | – | – | – | –
COc1cccc(/C=N/NC(=O)c2ccccc2O)c1O [2d] | 37.9 µM | 87.3 µM | 80.5 µM | 26.2 µM | > 100 µM | – | 3.3 | – | – | –
COc1cc(/C=N/NC(=O)c2ccccc2O)ccc1O [2e] | > 500 µM | > 500 µM | > 500 µM | > 500 µM | 20.1 ± 0.9 µM | – | – | 0.6 | – | –
COc1cc(/C=N/NC(=O)c2ccccc2O)cc(OC)c1O [2f] | > 500 µM | > 500 µM | > 500 µM | > 500 µM | 6.5 ± 0.4 µM | – | – | 1.9 | – | –
O=C(N/N=C/c1ccc(O)cc1O)c1ccccc1O [2g] | > 500 µM | > 500 µM | > 500 µM | 61.2 µM | > 100 µM | – | – | – | – | –
O=C(N/N=C/c1ccc(O)c(O)c1)c1ccccc1O [2h] | > 500 µM | > 500 µM | > 500 µM | 208 µM | 1.6 µM | – | – | 7.8 | – | –

SMILES | IC50 ([1]; 24 h exposure) | IC50 ([1]; 72 h exposure) | IC50 ([2]; 24 h exposure) | IC50 ([2]; 72 h exposure) | IC50 [3] | selectivity index (SI) ([2]; after 24 h exposure) | selectivity index (SI) ([2]; after 72 h exposure) | stoichiometric factor (SF) [3] | cytotoxic effect in words (from IC50 values) ([2]; 72 h after treatment) | cytotoxic effect in words (from IC50 values) ([2]; 24 and 72 h exposure, 0,1 to 500 µM)
O=C(N/N=C/c1ccccc1)c1ccc(O)cc1 [3a] | > 500 µM | > 500 µM | > 500 µM | > 500 µM | > 100 µM | – | – | – | – | –
O=C(N/N=C/c1ccccc1O)c1ccc(O)cc1 [3b] | > 500 µM | > 500 µM | > 500 µM | 101 µM | > 100 µM | – | >4.94 | – | – | –
O=C(N/N=C/c1ccc(O)cc1)c1ccc(O)cc1 [3c] | > 500 µM | > 500 µM | > 500 µM | > 500 µM | > 100 µM | – | – | – | – | –
COc1cccc(/C=N/NC(=O)c2ccc(O)cc2)c1O [3d] | > 500 µM | 213 µM | > 500 µM | 94.1 µM | > 100 µM | – | 2.3 | – | – | –
COc1cc(/C=N/NC(=O)c2ccc(O)cc2)ccc1O [3e] | > 500 µM | > 500 µM | > 500 µM | > 500 µM | 28.4 ± 0.2 µM | – | – | 0.4 | – | –
COc1cc(/C=N/NC(=O)c2ccc(O)cc2)cc(OC)c1O [3f] | > 500 µM | > 500 µM | > 500 µM | > 500 µM | 16.6 ± 0.2 µM | – | – | 0.8 | – | –
O=C(N/N=C/c1ccc(O)cc1O)c1ccc(O)cc1 [3g] | > 500 µM | 440 µM | > 500 µM | 130 µM | > 100 µM | – | – | – | – | –
O=C(N/N=C/c1ccc(O)c(O)c1)c1ccc(O)cc1 [3h] | > 500 µM | > 500 µM | > 500 µM | 107 µM | 2.5 ± 0.1 µM | – | – | 5 | – | –
COc1cc(C(=O)N/N=C/c2ccccc2)ccc1O [4a] | > 500 µM | > 500 µM | > 500 µM | > 500 µM | > 100 µM | – | – | – | – | –
COc1cc(C(=O)N/N=C/c2ccccc2O)ccc1O [4b] | > 500 µM | 290 µM | 250 µM | 91.4 µM | > 100 µM | >2.00 | 3.17 | – | – | –
COc1cc(C(=O)N/N=C/c2ccc(O)cc2)ccc1O [4c] | > 500 µM | > 500 µM | > 500 µM | > 500 µM | > 100 µM | – | – | – | – | –
COc1cc(C(=O)N/N=C/c2cccc(OC)c2O)ccc1O [4d] | > 500 µM | 128 µM | > 500 µM | 202 µM | > 100 µM | – | – | – | – | –
CC(Cc1ccc(O)c(O)c1)C(C)Cc1ccc(O)c(O)c1 (stereo not shown) [NDGA, nordihydroguaiaretic acid, reference compound] | – | – | – | – | 1.7 ± 0.1 µM | – | – | 7.4 | – | –
O=c1c(O)c(-c2ccc(O)c(O)c2)oc2cc(O)cc(O)c12 [Quercetin, quercetin, reference compound] | – | – | – | – | 1.9 ± 0.1 µM | – | – | 6.6 | – | –
CCc1c2c(nc3ccc(OC(=O)N4CCC(N5CCCCC5)CC4)cc13)-c1cc3c(c(=O)n1C2)COC(=O)[C@]3(O)CC [irinotecan, Irinotecan, reference compound] | > 500 µM | 35.2 µM | > 500 µM | 101 µM | – | – | 0.35 | – | moderate | –
Nc1nc2c(c(=O)[nH]1)N(C=O)C(CNc1ccc(C(=O)N[C@@H](CCC(=O)O)C(=O)O)cc1)CN2 (stereo partly shown) [leucovorin, Leucovorin, reference compound] | > 500 µM | 180 µM | > 500 µM | > 500 µM | – | – | <0.36 | – | – | no effect
